Tests used:
Rattus norvegicus = conditions: short-term, duration: 28 days, oral, gavage, Sprague-Dawley
Mus musculus = conditions: uterotrophic; duration: 3 days; oral; Active

O=C(O)C(F)(F)C(F)(F)C(F)(F)C(F)(F)C(F)(F)C(F)(F)C(F)(F)F [Perfluorooctanoic acid]
LOEL (Rattus norvegicus; F, Clinical chemistry_Alanine aminotransferase): 50 mg/kg-day | LOEL (Rattus norvegicus; F, Clinical chemistry_Albumin): 25 mg/kg-day | LOEL (Rattus norvegicus; F, Clinical chemistry_Albumin/globulin ratio): 12.5 mg/kg-day | LOEL (Rattus norvegicus; F, Clinical chemistry_Alkaline phosphatase): 6.25 mg/kg-day | NOEL (Rattus norvegicus; F, Clinical chemistry_Aspartate aminotransferase): 100 mg/kg-day | LOEL (Rattus norvegicus; F, Clinical chemistry_Cholesterol): 50 mg/kg-day | NOEL (Rattus norvegicus; F, Clinical chemistry_Creatinine kinase): 100 mg/kg-day | NOEL (Rattus norvegicus; F, Clinical chemistry_Direct bilirubin): 100 mg/kg-day | LOEL (Rattus norvegicus; F, Clinical chemistry_Free thyroxine): 100 mg/kg-day | LOEL (Rattus norvegicus; F, Clinical chemistry_Globulin): 12.5 mg/kg-day | NOEL (Rattus norvegicus; F, Clinical chemistry_Indirect bilirubin): 100 mg/kg-day | NOEL (Rattus norvegicus; F, Clinical chemistry_Sorbitol dehydrogenase): 100 mg/kg-day | NOEL (Rattus norvegicus; F, Clinical chemistry_Testosterone): 100 mg/kg-day | LOEL (Rattus norvegicus; F, Clinical chemistry_Thyroid stimulating hormone): 6.25 mg/kg-day | NOEL (Rattus norvegicus; F, Clinical chemistry_Total bile acids): 100 mg/kg-day | NOEL (Rattus norvegicus; F, Clinical chemistry_Total bilirubin): 100 mg/kg-day | NOEL (Rattus norvegicus; F, Clinical chemistry_Total protein): 100 mg/kg-day | LOEL (Rattus norvegicus; F, Clinical chemistry_Total thyroxine): 100 mg/kg-day | NOEL (Rattus norvegicus; F, Clinical chemistry_Total triiodothyronine): 100 mg/kg-day | LOEL (Rattus norvegicus; F, Clinical chemistry_Triglycerides): 50 mg/kg-day | LOEL (Rattus norvegicus; F, Gene expression_Acox1): 12.5 mg/kg-day | LOEL (Rattus norvegicus; F, Gene expression_Cyp2b1): 6.25 mg/kg-day | LOEL (Rattus norvegicus; F, Gene expression_Cyp2b2): 6.25 mg/kg-day | LOEL (Rattus norvegicus; F, Gene expression_Cyp4a1): 25 mg/kg-day | LOEL (Rattus norvegicus; F, Hematology_Erythrocytes): 12.5 mg/kg-day | LOEL (Rattus norvegicus; F, Hematology_Hematocrit): 12.5 mg/kg-day | LOEL (Rattus norvegicus; F, Hematology_Hemoglobin): 12.5 mg/kg-day | NOEL (Rattus norvegicus; F, Hematology_Mean corpuscular hemoglobin concentration): 100 mg/kg-day | NOEL (Rattus norvegicus; F, Hematology_Mean corpuscular volume): 100 mg/kg-day | NOEL (Rattus norvegicus; F, Hematology_Platelets): 100 mg/kg-day | NOEL (Rattus norvegicus; F, Hematology_Reticulocytes): 100 mg/kg-day | NOEL (Rattus norvegicus; F, Nonneoplastic effects_Bone marrow - Hypocellularity): 100 mg/kg-day | NOEL (Rattus norvegicus; F, Nonneoplastic effects_Forestomach - Epithelium, hyperplasia): 100 mg/kg-day | NOEL (Rattus norvegicus; F, Nonneoplastic effects_Forestomach - Inflammation, chronic active): 100 mg/kg-day | NOEL (Rattus norvegicus; F, Nonneoplastic effects_Kidney - Nephropathy, chronic progressive): 100 mg/kg-day | NOEL (Rattus norvegicus; F, Nonneoplastic effects_Liver - Hepatocyte, Necrosis): 100 mg/kg-day | LOEL (Rattus norvegicus; F, Nonneoplastic effects_Liver - Hepatocyte, cytoplasmic alteration): 25 mg/kg-day | LOEL (Rattus norvegicus; F, Nonneoplastic effects_Liver - Hepatocyte, hypertrophy): 100 mg/kg-day | NOEL (Rattus norvegicus; F, Nonneoplastic effects_Liver - Hepatocyte, vacuolization cytoplasmic): 100 mg/kg-day | NOEL (Rattus norvegicus; F, Nonneoplastic effects_Lymph nodes - Mandibular, atrophy): 100 mg/kg-day | NOEL (Rattus norvegicus; F, Nonneoplastic effects_Lymph nodes - Mesenteric, atrophy): 100 mg/kg-day | LOEL (Rattus norvegicus; F, Nonneoplastic effects_Nose - Olfactory epithelium, degeneration): 50 mg/kg-day | LOEL (Rattus norvegicus; F, Nonneoplastic effects_Nose - Olfactory epithelium, hyperplasia): 50 mg/kg-day | LOEL (Rattus norvegicus; F, Nonneoplastic effects_Nose - Olfactory epithelium, inflammation, suppurative): 100 mg/kg-day | LOEL (Rattus norvegicus; F, Nonneoplastic effects_Nose - Respiratory epithelium, hyperplasia): 12.5 mg/kg-day | LOEL (Rattus norvegicus; F, Nonneoplastic effects_Nose - Respiratory epithelium, inflammation, chronic active): 12.5 mg/kg-day | NOEL (Rattus norvegicus; F, Nonneoplastic effects_Spleen - Atrophy): 100 mg/kg-day | NOEL (Rattus norvegicus; F, Nonneoplastic effects_Spleen - Extramedullary hematopoiesis, increased): 100 mg/kg-day | NOEL (Rattus norvegicus; F, Nonneoplastic effects_Thymus - Atrophy): 100 mg/kg-day | NOEL (Rattus norvegicus; F, Nonneoplastic effects_Thymus - Lymphocyte, apoptosis): 100 mg/kg-day | LOEL (Rattus norvegicus; F, Nonneoplastic effects_Thyroid gland - Follicular cell hypertrophy): 100 mg/kg-day | LOEL (Rattus norvegicus; F, Organ weights_Liver - Absolute): 25 mg/kg-day | LOEL (Rattus norvegicus; F, Organ weights_Liver - Relative): 25 mg/kg-day | NOEL (Rattus norvegicus; F, Organ weights_R. adrenal gland - Absolute): 100 mg/kg-day | NOEL (Rattus norvegicus; F, Organ weights_R. adrenal gland - Relative): 100 mg/kg-day | LOEL (Rattus norvegicus; F, Organ weights_R. kidney - Absolute): 100 mg/kg-day | LOEL (Rattus norvegicus; F, Organ weights_R. kidney - Relative): 50 mg/kg-day | NOEL (Rattus norvegicus; F, Organ weights_Spleen - Absolute): 100 mg/kg-day | NOEL (Rattus norvegicus; F, Organ weights_Spleen - Relative): 100 mg/kg-day | NOEL (Rattus norvegicus; F, Organ weights_Thymus - Absolute): 100 mg/kg-day | NOEL (Rattus norvegicus; F, Organ weights_Thymus - Relative): 100 mg/kg-day | NOEL (Rattus norvegicus; F, Organ weights_Thyroid gland - Absolute): 100 mg/kg-day | NOEL (Rattus norvegicus; F, Organ weights_Thyroid gland - Relative): 100 mg/kg-day | LOEL (Rattus norvegicus; F, Reproductive toxicity_Altered estrous cyclicity): 100 mg/kg-day | NOEL (Rattus norvegicus; F, Survival rates): 100 mg/kg-day | NOEL (Rattus norvegicus; F, body weight): 100 mg/kg-day | LOEL (Rattus norvegicus; M, Clinical chemistry_Alanine aminotransferase): 0.625 mg/kg-day | NOEL (Rattus norvegicus; M, Clinical chemistry_Albumin): 10 mg/kg-day | LOEL (Rattus norvegicus; M, Clinical chemistry_Albumin/globulin ratio): 0.625 mg/kg-day | LOEL (Rattus norvegicus; M, Clinical chemistry_Alkaline phosphatase): 0.625 mg/kg-day | LOEL (Rattus norvegicus; M, Clinical chemistry_Aspartate aminotransferase): 2.5 mg/kg-day | LOEL (Rattus norvegicus; M, Clinical chemistry_Cholesterol): 0.625 mg/kg-day | LOEL (Rattus norvegicus; M, Clinical chemistry_Creatinine kinase): 2.5 mg/kg-day | LOEL (Rattus norvegicus; M, Clinical chemistry_Direct bilirubin): 10 mg/kg-day | LOEL (Rattus norvegicus; M, Clinical chemistry_Free thyroxine): 0.625 mg/kg-day | LOEL (Rattus norvegicus; M, Clinical chemistry_Globulin): 0.625 mg/kg-day | NOEL (Rattus norvegicus; M, Clinical chemistry_Sorbitol dehydrogenase): 10 mg/kg-day | NOEL (Rattus norvegicus; M, Clinical chemistry_Testosterone): 10 mg/kg-day | LOEL (Rattus norvegicus; M, Clinical chemistry_Thyroid stimulating hormone): 5 mg/kg-day | LOEL (Rattus norvegicus; M, Clinical chemistry_Total bile acids): 5 mg/kg-day | LOEL (Rattus norvegicus; M, Clinical chemistry_Total protein): 0.625 mg/kg-day | LOEL (Rattus norvegicus; M, Clinical chemistry_Total thyroxine): 0.625 mg/kg-day | LOEL (Rattus norvegicus; M, Clinical chemistry_Total triiodothyronine): 0.625 mg/kg-day | LOEL (Rattus norvegicus; M, Clinical chemistry_Triglycerides): 0.625 mg/kg-day | LOEL (Rattus norvegicus; M, Gene expression_Acox1): 0.625 mg/kg-day | LOEL (Rattus norvegicus; M, Gene expression_Acyl-CoA oxidase): 0.625 mg/kg-day | LOEL (Rattus norvegicus; M, Gene expression_Cyp2b1): 0.625 mg/kg-day | LOEL (Rattus norvegicus; M, Gene expression_Cyp2b2): 0.625 mg/kg-day | LOEL (Rattus norvegicus; M, Gene expression_Cyp4a1): 0.625 mg/kg-day | LOEL (Rattus norvegicus; M, Hematology_Erythrocytes): 1.25 mg/kg-day | LOEL (Rattus norvegicus; M, Hematology_Hematocrit): 1.25 mg/kg-day | LOEL (Rattus norvegicus; M, Hematology_Hemoglobin): 1.25 mg/kg-day | NOEL (Rattus norvegicus; M, Hematology_Mean corpuscular hemoglobin concentration): 10 mg/kg-day | LOEL (Rattus norvegicus; M, Hematology_Mean corpuscular volume): 10 mg/kg-day | NOEL (Rattus norvegicus; M, Hematology_Platelets): 10 mg/kg-day | LOEL (Rattus norvegicus; M, Hematology_Reticulocytes): 0.625 mg/kg-day | LOEL (Rattus norvegicus; M, Nonneoplastic effects_Bone marrow - Hypocellularity): 10 mg/kg-day | NOEL (Rattus norvegicus; M, Nonneoplastic effects_Epididymis - Duct, exfoliated germ cell): 10 mg/kg-day | NOEL (Rattus norvegicus; M, Nonneoplastic effects_Epididymis - Epithelium, apoptosis): 10 mg/kg-day | NOEL (Rattus norvegicus; M, Nonneoplastic effects_Epididymis - Hypospermia): 10 mg/kg-day | NOEL (Rattus norvegicus; M, Nonneoplastic effects_Forestomach - Epithelium, hyperplasia): 10 mg/kg-day | NOEL (Rattus norvegicus; M, Nonneoplastic effects_Forestomach - Inflammation, chronic active): 10 mg/kg-day | NOEL (Rattus norvegicus; M, Nonneoplastic effects_Kidney - Nephropathy, chronic progressive): 10 mg/kg-day | NOEL (Rattus norvegicus; M, Nonneoplastic effects_Liver - Hepatocyte, Necrosis): 10 mg/kg-day | LOEL (Rattus norvegicus; M, Nonneoplastic effects_Liver - Hepatocyte, cytoplasmic alteration): 0.625 mg/kg-day | LOEL (Rattus norvegicus; M, Nonneoplastic effects_Liver - Hepatocyte, hypertrophy): 1.25 mg/kg-day | NOEL (Rattus norvegicus; M, Nonneoplastic effects_Liver - Hepatocyte, vacuolization cytoplasmic): 10 mg/kg-day | NOEL (Rattus norvegicus; M, Nonneoplastic effects_Lymph nodes - Mandibular, atrophy): 10 mg/kg-day | NOEL (Rattus norvegicus; M, Nonneoplastic effects_Lymph nodes - Mesenteric, atrophy): 10 mg/kg-day | NOEL (Rattus norvegicus; M, Nonneoplastic effects_Nose - Olfactory epithelium, degeneration): 10 mg/kg-day | NOEL (Rattus norvegicus; M, Nonneoplastic effects_Nose - Olfactory epithelium, hyperplasia): 10 mg/kg-day | NOEL (Rattus norvegicus; M, Nonneoplastic effects_Nose - Olfactory epithelium, inflammation, suppurative): 10 mg/kg-day | LOEL (Rattus norvegicus; M, Nonneoplastic effects_Nose - Respiratory epithelium, hyperplasia): 0.625 mg/kg-day | LOEL (Rattus norvegicus; M, Nonneoplastic effects_Nose - Respiratory epithelium, inflammation, chronic active): 0.625 mg/kg-day | NOEL (Rattus norvegicus; M, Nonneoplastic effects_Spleen - Atrophy): 10 mg/kg-day | NOEL (Rattus norvegicus; M, Nonneoplastic effects_Spleen - Extramedullary hematopoiesis, increased): 10 mg/kg-day | NOEL (Rattus norvegicus; M, Nonneoplastic effects_Testes - Germinal epithelium, degeneration): 10 mg/kg-day | NOEL (Rattus norvegicus; M, Nonneoplastic effects_Testes - Interstitial cell, atrophy): 10 mg/kg-day | NOEL (Rattus norvegicus; M, Nonneoplastic effects_Testes - Seminiferous tubule, spermatid retention): 10 mg/kg-day | NOEL (Rattus norvegicus; M, Nonneoplastic effects_Thymus - Atrophy): 10 mg/kg-day | NOEL (Rattus norvegicus; M, Nonneoplastic effects_Thymus - Lymphocyte, apoptosis): 10 mg/kg-day | LOEL (Rattus norvegicus; M, Nonneoplastic effects_Thyroid gland - Follicular cell hypertrophy): 10 mg/kg-day | LOEL (Rattus norvegicus; M, Organ weights_Liver - Absolute): 0.625 mg/kg-day | LOEL (Rattus norvegicus; M, Organ weights_Liver - Relative): 0.625 mg/kg-day | NOEL (Rattus norvegicus; M, Organ weights_R. adrenal gland - Absolute): 10 mg/kg-day | NOEL (Rattus norvegicus; M, Organ weights_R. adrenal gland - Relative): 10 mg/kg-day | LOEL (Rattus norvegicus; M, Organ weights_R. kidney - Absolute): 1.25 mg/kg-day | LOEL (Rattus norvegicus; M, Organ weights_R. kidney - Relative): 0.625 mg/kg-day | NOEL (Rattus norvegicus; M, Organ weights_R. testis - Absolute): 10 mg/kg-day | LOEL (Rattus norvegicus; M, Organ weights_Spleen - Absolute): 2.5 mg/kg-day | NOEL (Rattus norvegicus; M, Organ weights_Spleen - Relative): 10 mg/kg-day | LOEL (Rattus norvegicus; M, Organ weights_Thymus - Absolute): 10 mg/kg-day | NOEL (Rattus norvegicus; M, Organ weights_Thymus - Relative): 10 mg/kg-day | LOEL (Rattus norvegicus; M, Organ weights_Thyroid gland - Absolute): 2.5 mg/kg-day | LOEL (Rattus norvegicus; M, Organ weights_Thyroid gland - Relative): 1.25 mg/kg-day | LOEL (Rattus norvegicus; M, Reproductive toxicity_Altered sperm parameters): 10 mg/kg-day | NOEL (Rattus norvegicus; M, Survival rates): 10 mg/kg-day | LOEL (Rattus norvegicus; M, body weight): 5 mg/kg-day | LEL (Mus musculus): 0.01 mg/kg-day

Source: EPA's ToxValDB 9.5
